Reference: US20240226233A1, “COMPOSITION COMPRISING ZAG-DERIVED PEPTIDE FOR IMPROVING SCARS AND KELOIDS” (L&C BIO CO., LTD., priority 2021, published 2024)

B1: zinc-alpha-2-glycoprotein (ZAG) protein (protein, listed as Homo sapiens)
chain: MVRMVPVLLSLLLLLGPAVPQENQDGRYSLTYIYTGLSKHVEDVPAFQALGSLNDLQFFRYNSKDRKSQPMGLWRQVEGMEDWKQDSQLQKAREDIFMETLKDIVEYYNDSNGSHVLQGRFGCEIENNRSSGAFWKYYYDGKDYIEFNKEIPAWVPFDPAAQITKQKWEAEPVYVQRAKAYLEEECPATLRKYLKYSKNILDRQDPPSVVVTSHQAPGEKKKLKCLAYDFYPGKIDVHWTRAGEVQEPELRGDVLHNGNGTYQSWVVVAVPPQDTAPYSCHVQHSSLAQPLVVPWEAS

Legend:
[1] = tested on: human dermal fibroblasts (HDFs); test: CCK-8 assay, cell proliferation of HDFs; assay type: cell-based; conditions: HDF, 10 μg/mL, compared to untreated negative control / other candidates
Method: (§1) A CCK-8 assay was performed to select amino acid sequences corresponding to the core active region of ZAG, which has an inhibitory effect on the formation of scars, among the 18 peptide candidates. Human dermal fibroblasts (HDFs) and keloid fibroblasts (KFs) were treated with the ZAG protein-derived peptide candidates (Z1 to Z18) and the ZAG protein (ZAG) at a concentration of 10 μg/mL, and cell proliferation was then confirmed using a CCK-8 assay. A group treated with the ZAG protein alone was used as a positive control, and an untreated group was used as a negative control.
(§2) Specifically, HDFs and KFs were treated with the ZAG protein (ZAG), Z16, and the ZAG protein-derived peptide candidates (Z15mer_1 to Z15mer_4) additionally synthesized in Preparation Example 2 at a concentration of 10 μg/mL, and cell proliferation was then confirmed through a CCK-8 assay.

HDFs = test: Scratch assay, cell migration of HDFs in TGF-β scar environment; assay type: cell-based, human; conditions: HDF scratched, 10 ng/mL TGF-β, 24 hours, compared to TGF-β-treated group
Method: (§3) HDFs and KFs were seeded in a 6-well plate. After 24 hours, the center of each well was scratched to create a wound. Thereafter, the HDF test group was treated with 10 ng/mL of TGF-β, which is overexpressed during scar formation, to create a scar environment, and then treated with the selected Z16 peptide. The migration of cells in the affected area was confirmed 24 hours later.
as §3, with “a wound generation model.” for “a wound.”, “a scarring” for “a scar”, “with Z15mer_1 to Z15mer_4 additionally synthesized in Preparation Example 2.” for “with the selected Z16 peptide.”

KFs = test: Scratch assay, cell migration of KFs; assay type: cell-based; conditions: KF scratched, general medium, 24 hours
Method: as §3
as §3, with “a wound generation model.” for “a wound.”, “a scarring” for “a scar”, “with Z15mer_1 to Z15mer_4 additionally synthesized in Preparation Example 2.” for “with the selected Z16 peptide.”

[2] = tested on: collagen I, III, TGF-β, pSMAD2/3; test: RNA (PCR) and protein (Western blotting) expression in scratched KFs; assay type: cell-based; conditions: KF, vs untreated negative control; for mRNA expression of collagen I, III, and TGF-β: PCR; for protein expression of collagen I, III, TGF-β, and pSMAD2/3: Western blotting
Method: as §3
(§4) Cells were treated with Z16 under the same conditions as in Example 2-1, and the expression of RNA and proteins involved in the formation of hypertrophic scars or keloids was analyzed. The expression was confirmed through PCR and Western blotting.
as §3, with “a wound generation model.” for “a wound.”, “a scarring” for “a scar”, “with Z15mer_1 to Z15mer_4 additionally synthesized in Preparation Example 2.” for “with the selected Z16 peptide.”
(§5) Cells were treated with Z16 under the same conditions as in Example 3-1, and the expression of RNA and proteins involved in the formation of hypertrophic scars or keloids was analyzed. The expression was confirmed through PCR and Western blotting.

[3] = tested on: hypertrophic scars or keloids; test: Overall inhibitory effect on formation of hypertrophic scars or keloids (HDF/KF tests); assay type: cell-based; conditions: compared with ZAG16, scratch assay HDF and KF
Method: as §1
as §3, with “a wound generation model.” for “a wound.”, “a scarring” for “a scar”, “with Z15mer_1 to Z15mer_4 additionally synthesized in Preparation Example 2.” for “with the selected Z16 peptide.”

[4] = tested on: collagen I, III, TGF-β, pSMAD2/3; test: RNA (PCR) and protein (Western blotting) expression in scratched, TGF-β-treated HDFs; assay type: cell-based, human; conditions: HDF, TGF-β + peptide vs TGF-β-treated group; for mRNA expression of collagen I, III, and TGF-β: PCR; for protein expression of collagen I, III, TGF-β, and pSMAD2/3: Western blotting
Method: as §3, §4
as §3, with “a wound generation model.” for “a wound.”, “a scarring” for “a scar”, “with Z15mer_1 to Z15mer_4 additionally synthesized in Preparation Example 2.” for “with the selected Z16 peptide.”
as §5

keloid fibroblasts (KFs) = test: CCK-8 assay, cell proliferation of KFs; assay type: cell-based; conditions: KF, 10 μg/mL, compared to untreated negative control / other candidates
Method: as §1, §2

| Molecule | cell proliferation (CCK-8) [1] | migration of cells in the affected area (HDFs) | migration of cells in the affected area (KFs) | mRNA expression of collagen I, III, and TGF-β [2] | protein expression of collagen I, III, TGF-β, and pSMAD2/3 [2] | inhibition of the formation of hypertrophic scars and keloids [3] | mRNA expression of collagen I, III, and TGF-β [4] | protein expression of collagen I, III, TGF-β, and pSMAD2/3 [4] | cell proliferation (CCK-8) (keloid fibroblasts (KFs)) |
| --- | --- | --- | --- | --- | --- | --- | --- | --- | --- |
| APGEKKKLKCLAYDF (ZAG protein-derived peptide) [Peptide Z15mer_1] | lowest proliferation | greatest inhibition of cell migration | greatest inhibition of cell migration | decreased | decreased | more effectively than ZAG16 | decreased | decreased | lowest proliferation |
| APGEKKKLKCLAYDFYPGKIDVHWTRAGEV (ZAG protein-derived peptide) [Peptide Z16] | lowest cell proliferation | inhibited | inhibited | decreased | decreased | – | decreased | decreased | lowest cell proliferation |
| B1 | decreased cell proliferation | – | – | – | – | – | – | – | decreased cell proliferation |
